Results from PubChem BioAssay (NCI).
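A five-concentration, 48-hour dose response in 96-well plates underlies each endpoint, interpolated linearly between surrounding concentrations. At the GI50, growth is halved. TGI: total growth inhibition.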

Columns and labels:
Experiment in all cases: NCI-60 cell line screen, 48 h
[1] = system: OVCAR-4 ovarian
[2] = system: RXF 393 renal
[3] = system: SK-MEL-28 melanoma
[4] = system: IGROV1 ovarian
[5] = system: A498 renal
[6] = system: HOP-62 NSCLC
[7] = system: MALME-3M melanoma
[8] = system: SK-OV-3 ovarian
[9] = system: SW-620 colon

O=C(N/N=C/c1cc(Br)cc(Br)c1[O-])c1ccccc1O.O=C(N/N=C/c1cc(Br)cc(Br)c1[O-])c1ccccc1O.[Mn+2]
TGI [1]: 17.5 µM
TGI [2]: 28.4 µM
TGI [3]: 13.8 µM
TGI [4]: 22.7 µM
GI50 [5]: 12.8 µM
TGI [5]: 50.1 µM
TGI [6]: 25.9 µM
TGI [7]: 16.6 µM
TGI [8]: 33.8 µM
TGI [9]: 24.1 µM

COC1=C(C(=O)OC(C)(C)C)[C@]2(C)C(C(=O)OC(C)(C)C)C(OC)=C(C(=O)OC(C)(C)C)[C@]2(C)C1C(=O)OC(C)(C)C (some centres undefined)
TGI [1]: > 100 µM
TGI [2]: > 100 µM
TGI [4]: > 100 µM
TGI [5]: > 100 µM
TGI [6]: > 100 µM
TGI [7]: > 100 µM
TGI [8]: > 100 µM
TGI [9]: > 100 µM

C=C(CN1CCN(c2ccccc2F)CC1)c1ccc(C(=O)Nc2ccccc2N)cc1
GI50 [1]: 5.01 µM
TGI [1]: > 100 µM
GI50 [2]: 0.702 µM
TGI [2]: 7.08 µM
GI50 [3]: 2.57 µM
TGI [3]: 53.9 µM
GI50 [4]: 0.571 µM
TGI [4]: 4.96 µM
GI50 [5]: 2.51 µM
TGI [5]: 22.9 µM
GI50 [6]: 1.15 µM
TGI [6]: 9.45 µM
GI50 [7]: 1.53 µM
TGI [7]: > 100 µM
GI50 [8]: 7.73 µM
TGI [8]: > 100 µM
GI50 [9]: 1.97 µM
TGI [9]: > 100 µM

CC(=O)O[C@@H]1CC(C)C2CC2C2=C(C(O)OC2O)[C@@H]1C(C)CCC=C(C)C (some centres undefined)
TGI [1]: 71.2 µM
TGI [2]: 34.8 µM
TGI [3]: > 100 µM
TGI [4]: 51.1 µM
TGI [5]: > 100 µM
TGI [6]: 56 µM
TGI [7]: 67 µM
TGI [9]: 51.2 µM

Cc1cc2c(c(C#N)c1C)NC(=O)C(CC(=O)O)C2=O (centres undefined)
TGI [1]: > 100 µM
TGI [2]: > 100 µM
TGI [3]: > 100 µM
TGI [4]: > 100 µM
TGI [5]: > 100 µM
TGI [6]: > 100 µM
TGI [7]: > 100 µM
TGI [8]: > 100 µM
TGI [9]: > 100 µM

CCc1nc2ccc(Cc3ccc(C(=O)NO)cc3)cc2c(=O)n1CCc1ccccc1
GI50 [1]: 1.25 µM
TGI [1]: 6.09 µM
GI50 [2]: 0.741 µM
TGI [2]: 2.3 µM
GI50 [3]: 1.47 µM
TGI [3]: 5.72 µM
GI50 [5]: 0.364 µM
TGI [5]: 1.93 µM
GI50 [6]: 1.32 µM
TGI [6]: 2.86 µM
GI50 [7]: 0.586 µM
TGI [7]: 2.1 µM
GI50 [8]: 1.44 µM
TGI [8]: 2.88 µM
GI50 [9]: 0.412 µM
TGI [9]: 2.23 µM

COc1ccc2nc(NC(=O)C(=O)CC(=O)c3ccc(Cl)cc3)sc2c1
TGI [1]: 53.2 µM
TGI [2]: > 100 µM
TGI [3]: > 100 µM
TGI [4]: > 100 µM
TGI [5]: > 100 µM
TGI [6]: > 100 µM
TGI [7]: > 100 µM
TGI [8]: > 100 µM
TGI [9]: > 100 µM

Cc1ccc(S(=O)(=O)OCC23CCC(C4CC42)C2CC23)cc1 (centres undefined)
TGI [1]: > 100 µM
TGI [3]: > 100 µM
TGI [4]: > 100 µM
TGI [5]: > 100 µM
TGI [6]: > 100 µM
TGI [7]: > 100 µM
TGI [8]: > 100 µM
TGI [9]: > 100 µM

c1cncc(CNc2ccccc2-c2nnc(Nc3ccc4c(c3)OCCO4)o2)c1
GI50 [1]: 0.549 µM
TGI [1]: 42.5 µM
GI50 [2]: 0.0343 µM
TGI [2]: 0.251 µM
GI50 [3]: 0.145 µM
TGI [3]: > 100 µM
GI50 [4]: 0.5 µM
TGI [4]: > 100 µM
GI50 [5]: 0.138 µM
TGI [5]: 1.8 µM
GI50 [6]: 0.181 µM
TGI [6]: > 100 µM
GI50 [7]: 19.2 µM
TGI [7]: > 100 µM
GI50 [8]: 0.0745 µM
TGI [8]: 1.79 µM
GI50 [9]: 0.0576 µM
TGI [9]: > 100 µM
